Assay results as given in the supplement of paper PMC10307832.

Compound: COC1=C(C=C(C=C1)C2=CC3=NC=CN3C(=N2)NC4=C(C=CC=N4)C(=O)N)OC [BAY61-3606] + N=C(N)NC(=N)NCCc1ccccc1 [Phenformin] (partner 250 µM)
Assay: relative viability (nuclei count vs DMSO), 5 days (fraction); higher = more cells survive
Conditions: first compound 2 µM
How it was run: (§1)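 Dosing by pin tool came one day after lung cancer cell lines were seeded in 1536-well plates, using either one drug or a fixed anchor-drug dose plus five library-drug doses (not always all listed) in √10 steps. After 5 days, nuclei were counted on 4× images. Relative viability is treated-well nuclei count divided by vehicle-well nuclei count, and values are medians of duplicate plates.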

Cell Line	relative viability
EKVX	0.234

Compound: COC1=C(C=C(C=C1)C2=CC3=NC=CN3C(=N2)NC4=C(C=CC=N4)C(=O)N)OC [BAY61-3606] + CC(=O)c1c(C)c2cnc(Nc3ccc(N4CCNCC4)cn3)nc2n(C2CCCC2)c1=O [Palbociclib] (partner 0.5 µM)
Assay: as above
Conditions: first compound 0.02 µM
How it was run: as §1

Cell Line	relative viability
HARA	0.262
SW 900	0.518
HCC-827	0.514
NCI-H520	0.218
LOU-NH91	0.547
NCI-H2023	0.393
A-427	0.484
NCI-H647	0.386
PC-3 [JPC-3]	0.531
NCI-H1755	0.435
NCI-H650	0.34
NCI-H3122	0.159
NCI-H441	0.249
NCI-H1395	0.702
201T	0.346
NCI-H1975	0.616

Cell Line	relative viability
NCI-H2405	0.564
NCI-H1355	0.444
NCI-H838	0.233
CAL-12T	0.634
NCI-H1666	0.657
EPLC-272H	0.322
NCI-H2347	0.444
NCI-H1915	0.54
NCI-H1437	0.338
NCI-H460	0.171
NCI-H1792	0.677
NCI-H2085	0.461
HCC-15	0.803
NCI-H1944	0.344
EKVX	0.405

Same assay, conditions: first compound 0.06325 µM

Cell Line	relative viability
HARA	0.23
HCC-827	0.456
NCI-H520	0.246
LOU-NH91	0.503
NCI-H2023	0.401
A-427	0.521
NCI-H647	0.358
PC-3 [JPC-3]	0.512
NCI-H1755	0.451
NCI-H650	0.337
NCI-H3122	0.185
NCI-H441	0.264
NCI-H1395	0.598
201T	0.349
NCI-H1975	0.628
HOP-62	0.465

Cell Line	relative viability
NCI-H2405	0.517
NCI-H1355	0.404
NCI-H838	0.2
CAL-12T	0.504
NCI-H1666	0.745
EPLC-272H	0.338
NCI-H2347	0.41
NCI-H1915	0.565
NCI-H1437	0.28
NCI-H460	0.126
NCI-H1792	0.61
NCI-H2085	0.487
HCC-15	0.673
NCI-H1944	0.313
EKVX	0.45

Same assay, conditions: first compound 0.2 µM

Cell Line	relative viability
HARA	0.268
HCC-827	0.467
NCI-H520	0.254
LOU-NH91	0.529
NCI-H2023	0.397
A-427	0.544
NCI-H647	0.328
PC-3 [JPC-3]	0.529
NCI-H1755	0.482
NCI-H650	0.371
NCI-H3122	0.226
NCI-H441	0.256
NCI-H1395	0.608
201T	0.341
NCI-H1975	0.526
HOP-62	0.459

Cell Line	relative viability
NCI-H2405	0.503
NCI-H1355	0.398
NCI-H838	0.22
CAL-12T	0.615
NCI-H1666	0.731
EPLC-272H	0.373
NCI-H2347	0.449
NCI-H1915	0.537
NCI-H1437	0.312
NCI-H460	0.256
NCI-H1792	0.659
NCI-H2085	0.45
HCC-15	0.708
NCI-H1944	0.31
EKVX	0.385

Same assay, conditions: first compound 0.6325 µM

Cell Line	relative viability
HARA	0.243
SW 900	0.566
HCC-827	0.484
NCI-H520	0.265
LOU-NH91	0.508
NCI-H2023	0.423
A-427	0.524
NCI-H647	0.401
PC-3 [JPC-3]	0.521
NCI-H1755	0.495
NCI-H650	0.365
NCI-H3122	0.231
NCI-H441	0.231
NCI-H1395	0.682
201T	0.397
NCI-H1975	0.504

Cell Line	relative viability
HOP-62	0.348
NCI-H2405	0.592
NCI-H1355	0.454
NCI-H838	0.247
CAL-12T	0.287
NCI-H1666	0.634
EPLC-272H	0.352
NCI-H2347	0.452
NCI-H1915	0.551
NCI-H1437	0.387
NCI-H460	0.257
NCI-H1792	0.747
NCI-H2085	0.46
HCC-15	0.768
NCI-H1944	0.338
EKVX	0.496

Same assay, conditions: first compound 2 µM

Cell Line	relative viability
HARA	0.306
SW 900	0.434
HCC-827	0.234
NCI-H520	0.22
LOU-NH91	0.557
NCI-H2023	0.283
A-427	0.479
NCI-H647	0.235
PC-3 [JPC-3]	0.517
NCI-H1755	0.444
NCI-H650	0.306
NCI-H3122	0.189
NCI-H441	0.192
NCI-H1395	0.59
201T	0.366
NCI-H1975	0.347

Cell Line	relative viability
HOP-62	0.346
NCI-H2405	0.494
NCI-H1355	0.335
NCI-H838	0.207
CAL-12T	0.246
NCI-H1666	0.688
EPLC-272H	0.318
NCI-H2347	0.436
NCI-H1915	0.375
NCI-H1437	0.315
NCI-H460	0.086
NCI-H1792	0.698
NCI-H2085	0.435
HCC-15	0.601
NCI-H1944	0.213
EKVX	0.45
